Data from patent publication US20180169045A1, “AMINO ACID COMPOSITIONS AND METHODS FOR THE TREATMENT OF LIVER DISEASES” (AXCELLA HEALTH INC., priority 2016, published 2018).

Tests used:
[1] = system: human primary hepatocytes; assay: MCP1/CCL2 secretion in primary human hepatocytes exposed to free fatty acids + TNFα (ELISA); format: cell-based; settings: primary human hepatocytes from two healthy donors, 24 h
Procedure: Hepatocyte lipotoxicity appears to be a central driver of hepatic cellular injury via oxidative stress and endoplasmic reticulum (ER) stress. The ability of amino acids to influence steatosis (lipid accumulation) and inflammation in hepatocytes was assessed using human primary hepatocytes (Lonza, TRL).
Primary hepatocytes lot nos. from two healthy human donors were seeded on day 0 at density of 6e04 cells in 96 well optical microplates (Thermofisher) in hepatocyte plating media (William's E medium (Gibco) supplemented with 10% heat-inactivated FBS (Atlanta Bio), 2 mM Glutamax (Gibco), 1×ITS plus (R&D systems), and 0.2% Primocin (InVivoGen) and incubated for 6 hours at 37° C., 5% CO2. After 6 hours, cells were washed twice with 150 ul William's E medium and incubated overnight at 37° C., 5% CO2 with serum-free hepatocytes culture media (Hepatocytes defined medium (Corning)) supplemented with 5 ug human recombinant EGF (Corning), 2 mM Glutamax (Gibco), and 1× Penicillin/Streptomycin. On day 1, cells were washed twice with 150 μL per well William's E medium (Gibco) and incubated for 24h in the hepatocyte culture media in the same conditions described above.
On day 2, cells were washed twice with 150 ul DPBS 1× (Gibco) and maintained in amino acid-free WEM (US Biologicals) containing a defined custom amino acid concentration based on the mean physiological concentrations in blood. The values are published in the Human Metabolome Database (Wishart D S, Tzur D, Knox C, et al., HMDB: the Human Metabolome Database. Nucleic Acids Res. 2007 January; 35(Database issue):D521-6. 17202168; which is hereby incorporated by reference in its entirety). This custom media is supplemented with 11 mM Glucose, 0.272 mM Sodium Pyruvate, and a dose curve of defined amino acid compositions (i.e., vehicle, LIVRQ+N-acetylcysteine, LIVRQ, RQ+N-acetylcysteine, N-acetylcysteine alone, LIV, or individually with L-Leucine, L-Isoleucine, L-Valine, L-Arginine, L-Glutamine, and L-Cysteine) at various ranges of concentrations. Cells were maintained in this defined media for 24 hours at 37° C., 5% CO2.
After pre-treatment, cells were exposed to free fatty acids (FFA) at 250 uM with a ratio of 2:1 (Oleate:Palmitate) supplemented with TNF-α (Thermofisher) at 1 ng/ml or vehicle. Cells were incubated with the FFAs mixture and the different amino acids combinations for 24 hours at 37° C., 5% CO2. After 24 hours incubation, media was removed for cytokine analysis and replaced by fresh media containing the same stimulus conditions and amino acid concentrations. Cells were incubated for an additional 48 hours for a total of 72 hours of FFA and TNFα stimulation.
Human CCL2 (MCP-1) was measured by ELISA (Human […] DuoSet ELISA, R&D Systems) at 1/5 or 1/10 dilution in 1× Reagent Diluent (Reagent Ancillary Kit 2, R&D Systems). Data were normalized to the specific per well cell density determined by nuclei count stained by Hoechst 3342 (Life technologies) in the fluorescence microscopy described below.

[2] = system: Primary human hepatic stellate cells; assay: TGFβ1-induced procollagen Iα1 secretion in primary human hepatic stellate cells (ELISA); format: cell-based; settings: for procollagen Iα1 secretion, in words: primary human hepatic stellate cells from three donors, 3 ng/mL TGFβ1, 24 h
Procedure: Primary human hepatic stellate cells were obtained from Samsara Sciences based on the following criteria for selecting donors: adult age (between 18 and 50 years), normal BMI (>18.5 and <25), and absence of confounding liver disease. Cells grown in Complete HSC Medium to ˜80% confluence in T75 or T150 flasks below passage 10 were seeded into sterile, collagen I coated, 96-well optical plastic microplates (ThermoScientific, 152036) at 6000 cells per well ([…]) and incubated overnight at 37° C., 5% CO2 in a humidified incubator in DMEM with 2% Fetal Bovine Serum and 1% Antibiotic-Antimycotic.
After the overnight incubation, plates were removed from the incubator and the medium was gently pipetted off and washed twice with 150 μL per well DPBS. The DPBS was removed and the pretreatment medium (±single amino acid dropout, 1×HMDB DMEM+1% Antibiotic-Antimycotic, 10 mM HEPES, ±supplemental amino acid dose; see experiment for medium composition) was applied to the cells at 150 μL per well. Plates were returned to the incubator for 10.5 hours.
After 10.5 hour pretreatment, the medium was removed from the cells, and the same pretreatment medium, now supplemented with 3 ng/mL TGFβ1, was applied. Each plate contained 3 ng/mL TGFβ1 in 1× human plasma amino acid (HMDB or PAA) concentration medium, 0 ng/mL in 1×HMDB, and 3 ng/mL TGFβ1+20 μM Silybin in 1×HMDB to serve as controls. Plates were then incubated for 24 hours at 37° C., 5% CO2.
After 24 hour stimulus, supernatant was removed and frozen at −80° C. in two separate aliquots. The cells were then washed with 125 μL per well Buffer FCW (FastLane Cell Multiplex NR Kit, Qiagen, 216713). The wash buffer was immediately removed and 50 μL of Cell Processing Mix (containing genomic DNA Wipeout buffer) was applied to lyse cells, incubating for 10 minutes at room temperature. RNA lysate was then transferred to 96-well qPCR plates, sealed, and gDNA was digested on thermal cycler at 75° C. for 5 minutes. RNA lysate was frozen at −80° C.
Human Procollagen Iα1 was measured from the supernatant by ELISA (Human Pro-Collagen I alpha 1 DuoSet ELISA, R&D Systems) at 1/100 dilution in 1× Reagent Diluent (Reagent Ancillary Kit 2, R&D Systems).

N=C(N)NCCC[C@H](N)C(=O)O [Arginine, L-Arginine]
MCP1/CCL2 secretion, in words [1]: increased | Procollagen Iα1 Secretion (Fold Change of 1X), Mean ([2]; first donor, Conc. 109 μM (baseline)): 1.0000 fold | procollagen Iα1 secretion, in words [2]: significantly increased procollagen Iα1 secretion in two of three donors | Procollagen Iα1 Secretion (Fold Change of 1X), Mean ([2]; second donor, Conc. 109 μM (baseline)): 1.0000 fold | Procollagen Iα1 Secretion (Fold Change of 1X), Mean ([2]; third donor, Conc. 109 μM (baseline)): 1.0000 fold

NC(=O)CC[C@H](N)C(=O)O [Glutamine, L-Glutamine]
MCP1/CCL2 secretion, in words [1]: significantly decrease | Procollagen Iα1 Secretion (Fold Change of 1X), Mean ([2]; first donor, Conc. 562 μM (baseline)): 1.0000 fold | procollagen Iα1 secretion, in words [2]: did not have a significant impact | Procollagen Iα1 Secretion (Fold Change of 1X), Mean ([2]; second donor, Conc. 562 μM (baseline)): 1.0000 fold | Procollagen Iα1 Secretion (Fold Change of 1X), Mean ([2]; third donor, Conc. 562 μM (baseline)): 1.0000 fold

CC[C@H](C)[C@H](N)C(=O)O [Isoleucine, L-Isoleucine]
MCP1/CCL2 secretion, in words [1]: did not have an effect | procollagen Iα1 secretion, in words [2]: significantly increased procollagen Iα1 secretion in two of three donors | Procollagen Iα1 Secretion (Fold Change of 1X), Mean ([2]; second donor, Conc. 66 μM (baseline)): 1.0000 fold | Procollagen Iα1 Secretion (Fold Change of 1X), Mean ([2]; third donor, Conc. 66 μM (baseline)): 1.0000 fold

CC(C)C[C@H](N)C(=O)O [Leucine, L-Leucine]
MCP1/CCL2 secretion, in words [1]: did not have an effect | Procollagen Iα1 Secretion (Fold Change of 1X), Mean ([2]; first donor, Conc. 153 μM (baseline)): 1.0000 fold | Procollagen Iα1 Secretion (Fold Change of 1X), Mean ([2]; second donor, Conc. 153 μM (baseline)): 1.0000 fold | Procollagen Iα1 Secretion (Fold Change of 1X), Mean ([2]; third donor, Conc. 153 μM (baseline)): 1.0000 fold

CC(=O)N[C@@H](CS)C(=O)O [N-acetylcysteine]
MCP1/CCL2 secretion, in words [1]: significantly decrease | procollagen Iα1 secretion, in words [2]: significantly decrease procollagen Iα1 secretion in two of the three donors

CC(C)[C@H](N)C(=O)O [Valine, L-Valine]
MCP1/CCL2 secretion, in words [1]: did not have an effect | Procollagen Iα1 Secretion (Fold Change of 1X), Mean ([2]; first donor, Conc. 234 μM (baseline)): 1.0000 fold | procollagen Iα1 secretion, in words [2]: significantly increased procollagen Iα1 secretion in only one of two donors | Procollagen Iα1 Secretion (Fold Change of 1X), Mean ([2]; second donor, Conc. 234 μM (baseline)): 1.0000 fold | Procollagen Iα1 Secretion (Fold Change of 1X), Mean ([2]; third donor, Conc. 234 μM (baseline)): 1.0000 fold
